“Also recorded” adds a separate entry of the source. Read-outs that look alike come from different tables or passages of the source.
Columns and labels:
Caco-2 cells = test system: Caco-2 cells
Method: 5-FU was dissolved in water and added to media at 10 μM, the clinically-relevant dose. Media was changed every day with reapplication of 5-FU. After 72 hr, the cell viability was assessed and is expressed relative to a vehicle control (Caco-2, n=3).

[1] = test system: primary human epithelial cells of the gingiva (HEGP); assay: Protection of primary gingival epithelial cells from 5-FU toxicity, 72 hours (FIG. 9); type: cell-based
Source text: GI columnar cells rely for growth predominantly on de novo pyrimidine synthesis from nutrients in the GI contents. Squamous cells of the oropharynx rely for growth predominantly on salvage of cell constituents of the overlying cells closer to the tissue surface.

primary human skin cells = test system: primary human skin cells
Method: The concentration of 5-FU was also 0.01 mM in these trials. […] The relative viability of the cells was determined after 48 hours (FIG. 7) or 72 hours (FIG. 8).

[2] = acidic / low pH, orotate not charged (Robinson et al.); cited from earlier work
[3] = Van Acker et al.; cited from earlier work
[4] = Van Acker et al.; cited from earlier work; remark: listed apart in the source
in vitro = type: cell-based; details: human
Method: The efficacy of certain compounds as protective agents when co-administered with 5-FU was tested in cell culture. […] The relative viability of the cells was determined after 120 hours.

SMILES: O=c1cc[nH]c(=O)[nH]1 [uracil]
- effect on cytoprotection by adenine 2.5 mM in combination with orotate 2.5 mM (Caco-2 cells; further addition of uracil 1.25 and 2.5 mM, 10 μM 5-FU, data not shown): reversal of the cytoprotection
- efficacy and toxicity to primary gingival cells (HGEP) ([1]; FIG. 9, 72 hours): effective and non-toxic
- prevention of 5-FU toxicity ([1]; excess of uracil together with 5-FU 10 μM): prevented 5-FU toxicity
- protection against 5-FU toxicity ([1]; further addition of uracil at 1.25 mM to adenine and orotate 2.5 mM each (Result Y)): significant protection
- protection against 5-FU toxicity ([1]; further addition of uracil at 2.5 mM to adenine and orotate 2.5 mM each (Result Z)): even more significant protection

SMILES: O=C(O)c1cc(=O)[nH]c(=O)[nH]1 [orotate]
- cytoprotection against 10 μM 5-FU toxicity (Caco-2 cells): statistically insignificant cytoprotection
- effect of adding orotate on cytoprotection by adenine (Caco-2 cells; orotate 1.25 mM with adenine 0.0125 mM through 1.25 mM, 10 μM 5-FU (FIG. 5)): did not initially attenuate 5-FU toxicity beyond the cytoprotection provided by adenine alone
- effect of adding orotate on cytoprotection by adenine (Caco-2 cells; still higher concentrations of orotate with adenine 2.5 mM (FIG. 6, Results 5, 6 vs 2)): progressively greater abrogation of salvage
- impact on skin (squamous) cell response to 5-FU exposure (primary human skin cells): does not impact
- absorption into the systemic circulation [2]: better absorbed; also recorded: absorbed at a higher rate

SMILES: Nc1ncnc2nc[nH]c12 [adenine]
- cytoprotection against 10 μM 5-FU toxicity (Caco-2 cells): progressively greater cytoprotection
- excess of protective nucleobase required for quantitative protection (Caco-2 cells; adenine alone, vs 10 μM 5-FU): ~100 ×

SMILES: Nc1nc(O)nc2nc(O)[nH]c12 [2,8-dihydroxy adenine]
- renal toxicity [3]: can cause renal stones
- solubility [4]: poorly soluble

SMILES: O=c1[nH]cc(F)c(=O)[nH]1 [5-FU, 5-fluorouracil, reference compound]
- viability at 120 h, 0.01 mM (in vitro): < 50%

Source: patent US9119855B2, “Compositions and methods for treatment of the side-effects associated with administration of cancer chemotherapeutic agents” (Asymmetric Therapeutics, LLC, priority 2008, dated 2015)
